Experiments:
[1] = molecular target: T1, PTGER2 (EP2) (Homo sapiens, UniProt P43116); test: hEP2 b-arrestin assay (PathHunter HEK 293 PTGER2 b-arrestin cells); format: cell-based; details: antagonistic activity, beta-arrestin assay; read-out: hEP2 b-arr IC50
T1 construct: host or cells: HEK 293 (PathHunter PTGER2 b-arrestin cell line)
How it was run: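 PathHunter HEK293 cells with ProLink-tagged EP2 and EA-β-arrestin 2 preincubated 15 min at 37 °C with compound (10 μM-2 nM or 1 μM-0.2 nM), then stimulated 120 min with 5 μM PGE2 (EC80). β-gal complementation read by chemiluminescence; IC50 from duplicate dose-response versus DMSO.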

[2] = molecular target: T2, PTGER4 (EP4) (Homo sapiens, UniProt P35408); test: hEP4 b-arrestin assay (PathHunter HEK 293 PTGER4 b-arrestin cells); format: cell-based; details: antagonistic activity, beta-arrestin assay; read-out: hEP4 b-arr IC50
T2 construct: host or cells: HEK 293 (PathHunter PTGER4 b-arrestin cell line)
How it was run: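 PathHunter HEK 293 cells expressing ProLink-tagged human EP4 and EA-β-arrestin 2, seeded 24 h before. Compounds (10 μM–2 nM or 1 μM–0.2 nM) preincubated 15 min at 37 °C, then 20 nM PGE2 (EC80) for 120 min at 37 °C. β-gal complementation luminescence read; IC50 from duplicate dose-response curves versus DMSO control.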

T1 sequence (P43116 whole entry): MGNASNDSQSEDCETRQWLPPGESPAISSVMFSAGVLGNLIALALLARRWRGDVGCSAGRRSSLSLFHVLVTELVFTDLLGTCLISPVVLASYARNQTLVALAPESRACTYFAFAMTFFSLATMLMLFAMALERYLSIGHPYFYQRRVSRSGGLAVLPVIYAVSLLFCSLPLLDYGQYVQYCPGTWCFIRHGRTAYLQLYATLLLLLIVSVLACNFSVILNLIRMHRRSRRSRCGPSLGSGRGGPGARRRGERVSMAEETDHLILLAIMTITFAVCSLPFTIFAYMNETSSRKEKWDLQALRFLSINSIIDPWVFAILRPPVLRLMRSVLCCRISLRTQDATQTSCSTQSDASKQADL
T2 sequence (P35408 whole entry): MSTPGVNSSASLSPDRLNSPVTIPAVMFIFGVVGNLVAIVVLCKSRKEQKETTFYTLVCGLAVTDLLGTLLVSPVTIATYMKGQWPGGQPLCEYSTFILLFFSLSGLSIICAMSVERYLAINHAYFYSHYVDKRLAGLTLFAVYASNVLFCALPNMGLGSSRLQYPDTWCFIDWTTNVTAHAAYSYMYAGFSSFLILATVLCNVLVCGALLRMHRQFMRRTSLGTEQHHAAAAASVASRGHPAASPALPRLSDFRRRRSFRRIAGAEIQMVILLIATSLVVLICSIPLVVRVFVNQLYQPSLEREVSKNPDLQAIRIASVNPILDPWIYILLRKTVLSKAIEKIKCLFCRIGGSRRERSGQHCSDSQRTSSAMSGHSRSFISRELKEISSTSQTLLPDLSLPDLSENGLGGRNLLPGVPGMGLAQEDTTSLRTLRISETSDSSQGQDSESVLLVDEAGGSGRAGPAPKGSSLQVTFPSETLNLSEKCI

Compound	IC50 [1] [nM]	IC50 [2] [nM]
COc1cc(Cl)cc2c(CCNc3cc(-c4ccc(C(=O)O)c(OC5CC5)c4)ncn3)c(C)oc12 [Example 83, 4-{6-[2-(5-Chloro-7-methoxy-2-methyl-benzofuran-3-yl)-ethylamino]-pyrimidin-4-yl}-2-cyclopropoxy-benzoic acid]	22	101
CCOc1cc(-c2cc(NCCc3c(C)oc4c(C)cc(F)cc34)ncn2)sc1C(=O)O [Example 37, 3-Ethoxy-5-{6-[2-(5-fluoro-2,7-dimethyl-benzofuran-3-yl)-ethylamino]-pyrimidin-4-yl}-thiophene-2-carboxylic acid]	2	42
CSc1cc(-c2cc(NCCc3c(C)sc4c(C)cc(F)cc34)ncn2)ccc1C(=O)O [Example 17, 4-{6-[2-(5-Fluoro-2,7-dimethyl-benzo[b]thiophen-3-yl)-ethylamino]-pyrimidin-4-yl}-2-methylsulfanyl-benzoic acid]	5	248
CCOc1cc(-c2cc(NCCc3c(C)sc4c(C)cc(F)cc34)ncn2)sc1C(=O)O [Example 32, 3-Ethoxy-5-{6-[2-(5-fluoro-2,7-dimethyl-benzo[b]thiophen-3-yl)-ethylamino]-pyrimidin-4-yl}-thiophene-2-carboxylic acid]	2	16
CCSc1cc(-c2cc(NCCc3c(C)sc4ccccc34)ncn2)ccc1C(=O)O [Example 43, 2-Ethylsulfanyl-4-{6-[2-(2-methyl-benzo[b]thiophen-3-yl)-ethylamino]-pyrimidin-4-yl}-benzoic acid]	3	1080
Cc1sc2c(C)cc(F)cc2c1CCNc1cc(-c2ccc(C(=O)O)c(OCCO)c2)ncn1 [Example 86, 4-{6-[2-(5-fluoro-2,7-dimethyl-benzo[b]thiophen-3-yl)-ethylamino]-pyrimidin-4-yl}-2-(2-hydroxy-ethoxy)-benzoic acid]	19	4520
CCOc1cc(-c2cc(NCCc3c(C)sc4c(C)cc(F)cc34)ncn2)ccc1C(=O)O [Example 56, 2-Ethoxy-4-{6-[2-(5-fluoro-2,7-dimethyl-benzo[b]thiophen-3-yl)-ethylamino]-pyrimidin-4-yl}-benzoic acid]	13	47
CCOc1cc(-c2cc(NCCc3csc4ccccc34)ncn2)sc1C(=O)O [Example 33, 5-[6-(2-Benzo[b]thiophen-3-yl-ethylamino)-pyrimidin-4-yl]-3-ethoxy-thiophene-2-carboxylic acid]	19	168
CCOc1cc(-c2cc(NCCc3c(C)sc4c(OC)ccc(Cl)c34)ncn2)ccc1C(=O)O [Example 57, 4-{6-[2-(4-Chloro-7-methoxy-2-methyl-benzo[b]thiophen-3-yl)-ethylamino]-pyrimidin-4-yl}-2-ethoxy-benzoic acid]	17	287
CCOc1cc(-c2cc(NCCc3c(C)oc4c(Cl)cc(Cl)cc34)ncn2)ccc1C(=O)O [Example 71, 4-{6-[2-(5,7-Dichloro-2-methyl-benzofuran-3-yl)-ethylamino]-pyrimidin-4-yl}-2-ethoxy-benzoic acid]	7	958
CCOc1cc(-c2cc(NCCc3c(C)oc4c(OC)ccc(F)c34)ncn2)sc1C(=O)O [Example 34, 3-Ethoxy-5-{6-[2-(4-fluoro-7-methoxy-2-methyl-benzofuran-3-yl)-ethylamino]-pyrimidin-4-yl}-thiophene-2-carboxylic acid]	6	12
CCOc1cc(-c2cc(NCCc3c(C)sc4ccccc34)ncn2)ccc1C(=O)O [Example 72, 2-Ethoxy-4-{6-[2-(2-methyl-benzo[b]thiophen-3-yl)-ethylamino]-pyrimidin-4-yl}-benzoic acid]	3	2250
CCOc1cc(-c2cc(NCCc3c(Br)sc4c(C)cc(F)cc34)ncn2)ccc1C(=O)O [Example 58, 4-{6-[2-(2-Bromo-5-fluoro-7-methyl-benzo[b]thiophen-3-yl)-ethylamino]-pyrimidin-4-yl}-2-ethoxy-benzoic acid]	12	454
COc1ccc(Cl)c2c(CCNc3cc(-c4ccc(C(=O)O)c(SC)c4)ncn3)c(C)sc12 [Example 15, 4-{6-[2-(4-Chloro-7-methoxy-2-methyl-benzo[b]thiophen-3-yl)-ethylamino]-pyrimidin-4-yl}-2-methylsulfanyl-benzoic acid]	6	168
CCOc1cc(-c2cc(NCCc3c(C)oc4c(OC)cc(Cl)cc34)ncn2)sc1C(=O)O [Example 38, 5-{6-[2-(5-Chloro-7-methoxy-2-methyl-benzofuran-3-yl)-ethylamino]-pyrimidin-4-yl}-3-ethoxy-thiophene-2-carboxylic acid]	9	12
CCOc1cc(-c2cc(NCCc3c(C)sc4c(C)ccc(F)c34)ncn2)sc1C(=O)O [Example 25, 3-Ethoxy-5-{6-[2-(4-fluoro-2,7-dimethyl-benzo[b]thiophen-3-yl)-ethylamino]-pyrimidin-4-yl}-thiophene-2-carboxylic acid]	2	7
CCOc1cc(-c2cc(NCCc3c(C)oc4c(C)cc(Cl)cc34)ncn2)ccc1C(=O)O [Example 64, 4-{6-[2-(5-Chloro-2,7-dimethyl-benzofuran-3-yl)-ethylamino]-pyrimidin-4-yl}-2-ethoxy-benzoic acid]	11	522
CCOc1cc(-c2cc(NCCc3c(C)oc4c(Cl)cccc34)ncn2)ccc1C(=O)O [Example 68, 4-{6-[2-(7-Chloro-2-methyl-benzofuran-3-yl)-ethylamino]-pyrimidin-4-yl}-2-ethoxy-benzoic acid]	14	659
Cc1sc2c(C)cc(F)cc2c1CCNc1cc(-c2ccc(CC(=O)O)c(OC3CC3)c2)ncn1 [Example 196, (2-Cyclopropoxy-4-{6-[2-(5-fluoro-2,7-dimethyl-benzo[b]thiophen-3-yl)-ethylamino]-pyrimidin-4-yl}-phenyl)-acetic acid]	16	99
CCOc1cc(-c2cc(NCCc3c(C)oc4c(OC)cc(Cl)cc34)ncn2)ccc1C(=O)O [Example 70, 4-{6-[2-(5-Chloro-7-methoxy-2-methyl-benzofuran-3-yl)-ethylamino]-pyrimidin-4-yl}-2-ethoxy-benzoic acid]	37	394
CCOc1cc(-c2cc(NCCc3c(C)oc4c(Cl)cccc34)ncn2)sc1C(=O)O [Example 35, 5-{6-[2-(7-Chloro-2-methyl-benzofuran-3-yl)-ethylamino]-pyrimidin-4-yl}-3-ethoxy-thiophene-2-carboxylic acid]	3	35
CCc1cc(-c2cc(NCCc3c(C)sc4c(C)cc(F)cc34)ncn2)cc(C)c1CC(=O)O [Example 194, (2-Ethyl-4-{6-[2-(5-fluoro-2,7-dimethyl-benzo[b]thiophen-3-yl)-ethylamino]-pyrimidin-4-yl}-6-methyl-phenyl)-acetic acid]	47	96
Cc1sc2c(C)cccc2c1CCNc1cc(-c2ccc(C(=O)O)c(SC(C)C)c2)ncn1 [Example 90, 4-{6-[2-(2,7-Dimethyl-benzo[b]thiophen-3-yl)-ethylamino]-pyrimidin-4-yl}-2-isopropylsulfanyl-benzoic acid]	11	247
CSc1cc(-c2cc(NCCc3c(C)sc4c(C)cccc34)ncn2)ccc1C(=O)O [Example 14, 4-{6-[2-(2,7-Dimethyl-benzo[b]thiophen-3-yl)-ethylamino]-pyrimidin-4-yl}-2-methylsulfanyl-benzoic acid]	4	195
CCOc1cc(-c2cc(NCCc3c(Cl)sc4c(C)cc(F)cc34)ncn2)ccc1C(=O)O [Example 59, 4-{6-[2-(2-Chloro-5-fluoro-7-methyl-benzo[b]thiophen-3-yl)-ethylamino]-pyrimidin-4-yl}-2-ethoxy-benzoic acid]	15	625
CCOc1cc(-c2cc(NCCc3c(C)sc4c(C)ccc(Cl)c34)ncn2)sc1C(=O)O [Example 29, 5-{6-[2-(4-Chloro-2,7-dimethyl-benzo[b]thiophen-3-yl)-ethylamino]-pyrimidin-4-yl}-3-ethoxy-thiophene-2-carboxylic acid]	14	25
CCOc1cc(-c2cc(NCCc3c(Cl)sc4ccccc34)ncn2)ccc1C(=O)O [Example 75, 4-{6-[2-(2-chloro-benzo[b]thiophen-3-yl)-ethylamino]-pyrimidin-4-yl}-2-ethoxy-benzoic acid]	8	4300
Cc1sc2c(C)cc(F)cc2c1CCNc1cc(-c2ccc(C(=O)O)c(OC3CC3)c2)ncn1 [Example 195, 2-Cyclopropoxy-4-{6-[2-(5-fluoro-2,7-dimethyl-benzo[b]thiophen-3-yl)-ethylamino]-pyrimidin-4-yl}-benzoic acid]	4	111
CCSc1cc(-c2cc(NCCc3c(C)sc4c(C)cccc34)ncn2)ccc1C(=O)O [Example 42, 4-{6-[2-(2,7-Dimethyl-benzo[b]thiophen-3-yl)-ethylamino]-pyrimidin-4-yl}-2-ethylsulfanyl-benzoic acid]	4	328
Cc1sc2c(C)cc(F)cc2c1CCNc1cc(-c2cc3c(C(=O)O)cccc3[nH]2)ncn1 [Example 82, 2-{6-[2-(5-Fluoro-2,7-dimethyl-benzo[b]thiophen-3-yl)-ethylamino]-pyrimidin-4-yl}-1H-indole-4-carboxylic acid]	13	155

— US11325899B2, “Benzofurane and benzothiophene derivatives as PGE2 receptor modulators” (IDORSIA PHARMACEUTICALS LTD, priority 2017, dated 2022)
